Data reported in patent publication US20030087881A1, “Irreversible inhibitors of tyrosine kinases” (priority 1997, published 2003).

Columns and labels:
[1] = test system: A431 human epidermoid carcinoma cells; assay: cells; details: A-431, read-out: IC50 (nM) A431 Cell Autophosphorylation Assay
Protocol: (§1) Extracts were made by lysing the monolayers in 0.2 mL of boiling Laemlli buffer (2% sodium dodecyl sulfate, 5% beta-mercaptoethanol, 10% glycerol and 50 mM tris[hydroxymethyl]aminomethane (Tris), pH 6.8), and the lysates were heated to 100° C. for 5 minutes. Proteins in the lysate were separated by polyacrylamide gel electrophoresis and electrophoretically transferred to nitrocellulose. The membrane was washed once in 10 mM Tris, pH 7.2, 150 mM NaCl, 0.01% Azide (TNA), and blocked overnight in TNA containing 5% bovine serum albumin and 1% ovalbumin. The membrane was blotted for 2 hours with antiphosphotyrosine antibody (UBI, 1 μg/mL in blocking buffer) and then washed twice in TNA, once in TNA containing 0.05% Tween-20 detergent and 0.05% nonidet P-40 detergent and twice in TNA. […] Band intensities were determined with a Molecular Dynamics laser densitometer.
Duplicate sets of cells were treated with a range of concentrations of the designated compound to be tested as an inhibitor for 15 minutes. The cells were then stimulated with 100 ng/mL of EGF for 5 minutes and extracts made as described under the Western Blotting Procedure.

[2] = test system: A431 human epidermoid carcinoma cells; details: 2 μM compound for 1 or 2 hours, washed free, EGF stimulation
Protocol: as §1

[3] = target: Human EGF receptor tyrosine kinase (Homo sapiens, UniProt P00533); details: read-out: IC50 (nM) EGFr (isolated enzyme assay); isolated enzyme from A431 cells; 10 μM ATP
Sequence of Human EGF receptor tyrosine kinase (P00533 25-1210): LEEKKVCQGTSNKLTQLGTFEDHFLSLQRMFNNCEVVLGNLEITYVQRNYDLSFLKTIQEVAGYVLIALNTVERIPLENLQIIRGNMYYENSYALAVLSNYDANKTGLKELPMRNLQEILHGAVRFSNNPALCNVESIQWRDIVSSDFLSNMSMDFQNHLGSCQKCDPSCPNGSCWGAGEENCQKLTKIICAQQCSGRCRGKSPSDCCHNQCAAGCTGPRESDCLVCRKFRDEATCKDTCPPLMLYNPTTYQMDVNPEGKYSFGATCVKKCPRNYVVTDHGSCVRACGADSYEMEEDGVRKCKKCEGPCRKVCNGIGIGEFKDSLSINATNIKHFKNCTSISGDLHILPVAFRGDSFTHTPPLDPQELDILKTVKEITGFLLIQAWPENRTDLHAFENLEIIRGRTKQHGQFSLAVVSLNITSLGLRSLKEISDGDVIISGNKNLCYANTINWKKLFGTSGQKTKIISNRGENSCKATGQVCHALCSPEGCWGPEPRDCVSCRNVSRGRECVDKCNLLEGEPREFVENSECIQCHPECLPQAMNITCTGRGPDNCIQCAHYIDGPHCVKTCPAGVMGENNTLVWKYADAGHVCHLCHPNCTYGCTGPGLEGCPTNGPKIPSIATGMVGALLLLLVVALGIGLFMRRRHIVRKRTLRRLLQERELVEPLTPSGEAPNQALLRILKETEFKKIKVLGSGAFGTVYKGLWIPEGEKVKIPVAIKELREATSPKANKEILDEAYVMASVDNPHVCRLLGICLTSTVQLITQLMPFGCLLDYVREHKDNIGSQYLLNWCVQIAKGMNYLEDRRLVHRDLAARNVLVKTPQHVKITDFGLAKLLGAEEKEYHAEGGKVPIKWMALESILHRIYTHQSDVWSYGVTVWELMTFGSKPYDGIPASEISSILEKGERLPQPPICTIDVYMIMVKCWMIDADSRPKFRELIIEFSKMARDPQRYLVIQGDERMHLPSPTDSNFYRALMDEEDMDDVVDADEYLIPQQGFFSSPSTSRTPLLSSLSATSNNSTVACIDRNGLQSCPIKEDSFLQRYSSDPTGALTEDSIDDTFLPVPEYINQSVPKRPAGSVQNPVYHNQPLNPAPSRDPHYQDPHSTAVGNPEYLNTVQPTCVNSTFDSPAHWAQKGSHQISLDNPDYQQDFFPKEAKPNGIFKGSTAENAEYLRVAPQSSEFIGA
Protocol: Human EGF receptor tyrosine kinase was isolated from A431 human epidermoid carcinoma cells by the following method. Cells were grown in roller bottles in dMEM/F12 media (Gibco/BRL) containing 10% fetal calf serum. Approximately 10^9 cells were lysed in 2 volumes of buffer containing 20mM N-[2-hydroxyethyl]piperazine-N′-[2-ethane sulfonic acid](Hepes), pH 7.4, 5 mM ethylene glycol-bis(β-aminoethyl ether) N,N,N′,N′-tetraacetic acid (EGTA), 1% Triton X-100, 10% glycerol, 0.1 mM sodium orthovanadate, 5 mM sodium fluoride, 4 mM pyrophosphate, 4 mM benzamide, 1 mM dithiothreitol (DTT), 80 μg/mL aprotinin, 40 μg/mL leupeptin, and 1 mM phenylmethyl sulfonyl fluoride (PMSF). After centrifugation at 25,000×g for 10 minutes, the supernatant was applied to a fast Q sepharose column (Pharmacia Biotech., Inc., Piscataway, N.J.) and eluted with a linear gradient from 0.1 M NaCl to 0.4 M NaCl in 50 mM Hepes, 10% glycerol, pH 7.4. Enzyme active fractions were pooled, divided into aliquots, and stored at −100° C.
Enzyme assays for IC50determinations were performed in 96-well filter plates (Millipore MADVN6550, Millipore, Bedford, Mass.). […] The wells are then washed 5 times with 0.2 mL of 10% TCA and ^32P incorporation determined with a Wallac beta plate counter (Wallac, Inc., Gaithersburg, Pa.).

For `C=CC(=O)Nc1ccc2ncnc(N3CCc4ccc(Br)cc43)c2c1` [Example 1, N-[4-(6-Bromo-2,3-dihydroindol-1-yl)quinazolin-6-yl]acrylamide], the IC50 [1] was 9.9 nM, the “Irreversibility Test” value [2] was “yes, irreversible” and the melting point was 214 to 216 °C. For the same molecule, the IC50 [3] was 0.4 nM.
